From patent publication US11617729B2 (priority 2019, dated 2023)

What was measured:
liver cancer cells Huh7 [1] = assay: Inhibition of fluorescently labeled DNA uptake by liver cancer cells; type: cell-based; conditions: then labeled DNA for 8 hours
Experimental: 1.8 KB of AFP (alpha feto protein) DNA is obtained through PCR (polymerase chain reaction), extracted with phenol-chloroform and adjusted to a concentration of 1 μg/mL. 5 μg of DNA is taken, and Rhodamine (fluorescent marker) is added. The mixture is allowed to stand at 37° C. for 1 hour, and purified in a G-50 Sephadex (purification column).
1640 medium is taken, and FBS (fetal bovine serum) is added, wherein the mass of FBS (fetal bovine serum) is 10% of that of 1640 medium. Put the mixture aside.
Eight groups of liver cancer cells Huh7 are inoculated into a 1640 medium respectively containing 10% FBS (fetal bovine serum) and cultured at 37° C. for 12 hours in an incubator containing 5% CO2.
Cells obtained through culture are rinsed 3 times with PBS and fixed with 4% formalin. The cells fixed as described above are photographed with a fluorescence microscope. […] The concentration of T3 is: 0 ng/mL, 1 ng/mL, 50 ng/mL and 100 ng/mL respectively.

liver cancer cells Huh7 [2] = assay: Inhibition of liver cancer cell proliferation (CellTiter 96 AQueous One Solution); type: cell-based; conditions: 72 hours, 490 nm absorbance
Experimental: (§1) Liver cells LO2 and liver cancer cells Huh7 are inoculated into a 1640 medium containing 10% FBS (fetal bovine serum) respectively, and cultured at 37° C. for 12 hours in an incubator containing 5% CO2. […] The CellTiter 96® AQueous One Solution kit is used to determine the cells. 20 μL of analytical reagents are added and readings are taken at 490 nm absorbance.

[3] = test system: LLC lung cancer cell strains; assay: Inhibition of the growth of mouse lung cancer tumors; type: in vivo, CK57BL mice; conditions: for Inhibition rate on the seventh day: 480 mg/kg intraperitoneally once a day for 7 days, vs normal saline group, hydrochloride
Experimental: Preparation of tumor cell suspension: LLC lung cancer cell strains are inoculated into a DMEM medium containing 10% FBS (fetal bovine serum), and cultured at 37° C. for 12 h in an incubator containing 5% CO2. When the cells grow to the logarithmic phase, the above medium is prepared into a cell suspension, and the concentration is 1×10^6 cells/mL to obtain the lung cancer cell suspension for later use.
Building of animal tumor model: 20 SPF grade CK57BL mice, male and (20±2) g, are taken. The above mice are kept in a laboratory without particular pathogens. The right armpit skin of the mice is disinfected with alcohol, and 0.2 mL of the above tumor cell suspension is drawn with a 1 mL syringe, and inoculated into the disinfected part of the mice by slow hypodermic injection. All mice are given sufficient water and feed, the litter is kept dry and the tumor growth of the mice is observed. Generally, about 10 days after modeling, obvious tumor nodules can be felt under the armpits of the mice, which means that the modeling was successful.

[4] = test system: H22 mouse liver cancer cells; assay: Inhibition of the growth of mouse liver cancer tumors; type: in vivo, Kunming mice; conditions: for Inhibition rate (ninth day): vs normal saline group, hydrochloride; for tumor volume, Ninth day / tumor volume, Sixth day / tumor volume, Third day: H22 tumors in Kunming mice
Experimental: Preparation of tumor cell suspension: H22 mouse liver cancer cells are inoculated into a 1640 medium containing 10% FBS (fetal bovine serum), and cultured at 37° C. for 12 h in an incubator containing 5% CO2. When the cells grow to the logarithmic phase, the above medium is prepared into a cell suspension, and the concentration of H22 mouse liver cancer cells is controlled to 1×10^6 cells/mL to obtain the tumor cell suspension for later use.
Building of animal tumor model: 30 SPF grade Kunming mice, male and (20±2) g, are taken. […] The right armpit skin of mice in each group is disinfected with alcohol, and 0.2 mL of the above tumor cell suspension is drawn with a 1 mL syringe, and inoculated into the disinfected part of the mice by slow hypodermic injection. All mice are given sufficient water and feed, the litter is kept dry and the tumor growth of the mice is observed. Generally, 7 days after modeling, obvious tumor nodules can be felt under the armpits of the mice, which means that the modeling was successful.

liver cells LO2 = assay: Proliferation of liver cells (CellTiter 96 AQueous One Solution); type: cell-based; conditions: 72 hours, 490 nm absorbance
Experimental: as §1

[5] = 480 mg/kg intraperitoneally once a day, LLC tumors in CK57BL mice
[6] = high-dose, 480 mg/kg intraperitoneally twice a day
[7] = low-dose, 240 mg/kg intraperitoneally twice a day

Row | Compound | uptake of fluorescently labeled DNA by liver cancer cells (liver cancer cells Huh7 [1]; control groups with 0, 1, 50, 100 ng/mL T3 for 24 hours) | growth of cancer cells Huh7 (liver cancer cells Huh7 [2]; 6 mmol/L) | growth of cancer cells Huh7 (liver cancer cells Huh7 [2]; 20 mmol/L) | Inhibition rate on the seventh day [3] | Inhibition rate on the seventh day ([3]; listed as Guanidine hydrochloride) | tumor volume, First day [3, 5] | tumor volume, Seventh day [3, 5] | tumor volume, Third day [3, 5] | Inhibition rate (ninth day) ([4]; high-dose, 480 mg/kg intraperitoneally twice a day for 9 days, 480 mg/kg) | tumor volume, Ninth day [4, 6] | tumor volume, Sixth day [4, 6] | tumor volume, Third day [4, 6] | Inhibition rate (ninth day) ([4]; low-dose, 240 mg/kg intraperitoneally twice a day for 9 days, 240 mg/kg) | tumor volume, Ninth day [4, 7] | tumor volume, Sixth day [4, 7] | tumor volume, Third day [4, 7] | growth of liver cells LO2 (liver cells LO2; 6 mmol/L) | growth of liver cells LO2 (liver cells LO2; 20 mmol/L) | uptake of fluorescently labeled DNA by liver cancer cells (liver cancer cells Huh7 [1]; 0, 1, 25, 50 mmol/L guanidine hydrochloride for 24 hours, fluorescence microscope)
1 | N[C@@H](Cc1cc(I)c(Oc2ccc(O)c(I)c2)c(I)c1)C(=O)O [triiodothyronine] | do not affect the uptake |  |  |  |  |  |  |  |  |  |  |  |  |  |  |  |  |  | 
2 | guanidine hydrochloride |  | begins to significantly inhibit | significantly inhibited | 56.8% | 56.8% | 0.43 cm^3 | 1.8 cm^3 | 0.92 cm^3 | 42% | 2.37 cm^3 | 1.47 cm^3 | 0.54 cm^3 | 24% | 3.11 cm^3 | 2.16 cm^3 | 0.55 cm^3 | does not affect the growth | significantly inhibited | significantly inhibit the uptake of DNA
